Experimental data: publication PMC9558053, “Development of a novel high-throughput screen for the identification of new inhibitors of protein S-acylation” (The Journal of Biological Chemistry, 2022)

Target: T1, human zDHHC2 (Homo sapiens, UniProt Q9UIJ5)
T1 construct: expressed in transfected cells; host or cells: HEK293T
T1 sequence (Q9UIJ5 1-367): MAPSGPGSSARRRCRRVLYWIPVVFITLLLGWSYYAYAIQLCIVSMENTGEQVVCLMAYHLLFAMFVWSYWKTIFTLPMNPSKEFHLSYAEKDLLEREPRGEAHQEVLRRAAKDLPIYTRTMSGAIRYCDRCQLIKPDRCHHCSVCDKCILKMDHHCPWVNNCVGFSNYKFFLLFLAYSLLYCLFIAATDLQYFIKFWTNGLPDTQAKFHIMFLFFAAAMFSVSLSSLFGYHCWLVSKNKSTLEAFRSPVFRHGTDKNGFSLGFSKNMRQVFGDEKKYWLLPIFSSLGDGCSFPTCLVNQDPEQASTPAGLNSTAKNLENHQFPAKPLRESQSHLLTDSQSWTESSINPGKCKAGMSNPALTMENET
Assay: TR-FRET high-throughput assay of zDHHC2 autoacylation (HA-zDHHC2 lipoparticles, NBD-palmitoyl-CoA)
Assay type: biochemical
Settings: Ono; for inhibition at 4.2 µM: compound 4.2 μM; for inhibition at 12.5 µM: compound 12.5 μM
Text: S-acylation is a two-step process involving enzyme “autoacylation” (at the cysteine of the DHHC motif) followed by transfer of the acyl chain to a substrate protein. To identify potential inhibitors of S-acylation, we developed an assay measuring enzyme autoacylation and focused on zDHHC2 given its prominent role in synaptic function in the nervous system (Fig. 1A). The assay monitors time-resolved FRET (TR-FRET) between the energy donor terbium cryptate (attached to an antibody recognizing hemagglutinin [HA]-tagged zDHHC2) and the acceptor fluorophore nitrobenzoxadiazole (NBD) (attached to the lipid group). The excitation of the energy donor terbium cryptate (360 nm) followed by its emission at 480 nm results in energy transfer to the acceptor NBD and emission at 539 nm. Enzyme autoacylation by NBD-conjugated palmitoyl-CoA increases the proximity of the terbium cryptate and NBD, leading to an increase in FRET signal. The resulting interaction is quantified as the ratiometric measurement of NBD (539 nm) over terbium (480 nm) emission and constitutes the TR-FRET signal.
Figure 1 High-throughput screen (HTS) for the discovery of chemical compounds modulating human zDHHC2 autoacylation activity: TR-FRET-based assay.A, experimental design of the HTS. HA-tagged zDHHC2 enzyme expressed at the surface of lipoparticles was incubated for 15 min at room temperature (RT) with NBD-tagged palmitoyl-CoA and an anti-HA antibody coupled to terbium (Tb) cryptate. Autoacylation of zDHHC2 on its catalytic cysteine brings closer the FRET donor Tb cryptate bound to the anti-HA antibody to the NBD fluorophore coupled to the palmitate and triggers FRET that can be followed over time (time-resolved FRET [TR-FRET]). B, TR-FRET was measured with increasing concentrations of NBD-palmitoyl-CoA (NBD-C16:0-CoA) and either WT zDHHC2 (left panel) or catalytically dead zDHHC2 C157S (right panel) over a period of 35 min. C, experimental conditions of the HTS screen. About 350,000 compounds were incubated individually in 1536-well plates at a concentration of 4.2 μM with zDHHC2 lipoparticles (42 μg/ml stock) for a few minutes before the addition of a mix containing the Tb cryptate–tagged anti-HA antibody (1:200 dilution) and 1 μM of NBD-palmitoyl-CoA (NBD-C16:0-CoA). TR-FRET was measured after a 15 min incubation at room temperature on a Biotek Synergy Neo apparatus. Results are given as a ratio between the FRET signal measured over a background baseline. D, histogram representation of ONO library screen showing the percentage of activity of zDHHC2 (as measured by TR-FRET) in the presence of each compound. The graph represents the number of compounds that are either activating (0 to 100) or inhibiting (0 to −100) zDHHC2 activity. […]

SMILES	inhibition at 4.2 µM	inhibition at 12.5 µM
O=C(Nc1cccc2c1OC(c1nnn[nH]1)CN2)c1ccc(OCCCCc2ccccc2)cc1 (stereo not shown) [TTZ-2, N-(2-(1H-Tetrazol-5-yl)-3,4-dihydro-2H-benzo[b][1,4]oxazin-8-yl)-4-(4-phenylbutoxy)benzamide]	45%	69%
CCCCCCCOc1ccc(C(=O)Nc2cccc3c2OC(c2nnn[nH]2)CN3)cc1 (stereo not shown) [TTZ-1, N-(2-(1H-Tetrazol-5-yl)-3,4-dihydro-2H-benzo[b][1,4]oxazin-8-yl)-4-(heptyloxy)benzamide]	32%	61%
